# Measurements as given in ChEMBL document CHEMBL1201861, “Genomics of Drug Sensitity in Cancer screening data, Wellcome Trust Sanger Institute”.
# How the values were obtained:
# Assay in all cases: cells
# [1] = system: COLO-741; format: functional, cell-based, Homo sapiens; settings: Homo sapiens, COLO-741
# Description: SANGER: Inhibition of human COLO-741 cell growth in a cell viability assay.
# [2] = system: COLO-824; format: functional, cell-based, Homo sapiens; settings: Homo sapiens, COLO-824
# Description: SANGER: Inhibition of human COLO-824 cell growth in a cell viability assay.
# [3] = system: Ca9-22; format: functional, cell-based, Homo sapiens; settings: Homo sapiens, Ca9-22;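 further: growth inhibition of Ca9-22 cells, read out with a cell viability assay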
# Description: SANGER: Inhibition of human Ca9-22 cell growth in a cell viability assay.
# [4] = system: Capan-2; format: functional, cell-based, Homo sapiens; settings: Homo sapiens, Capan-2;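 further: Capan-2 cell growth inhibition, read out with a viability assay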
# Description: SANGER: Inhibition of human Capan-2 cell growth in a cell viability assay.
# [5] = system: D-263MG; format: functional, cell-based, Homo sapiens; settings: Homo sapiens, D-263MG
# Description: SANGER: Inhibition of human D-263MG cell growth in a cell viability assay.
# [6] = system: EGI-1; format: functional, cell-based, Homo sapiens; settings: Homo sapiens, EGI-1;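 further: cell viability readout used to gauge growth inhibition of EGI-1 cells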
# Description: SANGER: Inhibition of human EGI-1 cell growth in a cell viability assay.
# [7] = system: ES1; format: functional, cell-based, Homo sapiens; settings: Homo sapiens, ES1;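 further: growth inhibition of ES1 cells, read out with a cell viability assay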
# Description: SANGER: Inhibition of human ES1 cell growth in a cell viability assay.
# [8] = system: ES5; format: functional, cell-based, Homo sapiens; settings: Homo sapiens, ES5;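 further: growth inhibition of human ES5 cells, read out by a cell viability assay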
# Description: SANGER: Inhibition of human ES5 cell growth in a cell viability assay.
# [9] = system: EW-11; format: functional, cell-based, Homo sapiens; settings: Homo sapiens, EW-11;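 further: growth inhibition of human EW-11 cells, measured with a cell viability assay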
# Description: SANGER: Inhibition of human EW-11 cell growth in a cell viability assay.
# [10] = system: EOL1; format: functional, cell-based; settings: Homo sapiens;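 further: growth inhibition of EoL-1 cells, read out by a cell viability assay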
# Description: SANGER: Inhibition of human EoL-1-cell cell growth in a cell viability assay.
# [11] = system: GI-1; format: functional, cell-based, Homo sapiens; settings: Homo sapiens, GI-1;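 further: growth inhibition of human GI-1 cells, measured with a cell viability readout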
# Description: SANGER: Inhibition of human GI-1 cell growth in a cell viability assay.
# [12] = system: GI-ME-N; format: functional, cell-based, Homo sapiens; settings: Homo sapiens, GI-ME-N;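 further: growth inhibition of human GI-ME-N cells, read out with a cell viability assay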
# Description: SANGER: Inhibition of human GI-ME-N cell growth in a cell viability assay.
# [13] = system: GMS-10; format: functional, cell-based, Homo sapiens; settings: Homo sapiens, GMS-10;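 further: growth inhibition of GMS-10 cells, read out as cell viability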
# Description: SANGER: Inhibition of human GMS-10 cell growth in a cell viability assay.
# [14] = system: HAL-01; format: functional, cell-based; settings: Homo sapiens;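 further: growth inhibition of human HAL-01 cells, read out with a cell viability assay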
# Description: SANGER: Inhibition of human HAL-01 cell growth in a cell viability assay.
# [15] = system: HC-1; format: functional, cell-based; settings: Homo sapiens;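 further: growth inhibition of HC-1 cells measured by a cell viability assay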
# Description: SANGER: Inhibition of human HC-1 cell growth in a cell viability assay.
# [16] = system: HCC1937; format: functional, cell-based, Homo sapiens; settings: Homo sapiens, HCC1937;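 further: growth inhibition measured with a cell viability read-out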
# Description: SANGER: Inhibition of human HCC1937 cell growth in a cell viability assay.
# [17] = system: HMV-2 cell line; format: functional, cell-based, Homo sapiens; settings: Homo sapiens, HMV-2;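 further: growth inhibition of HMV-II cells, read out with a cell viability assay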
# Description: SANGER: Inhibition of human HMV-II cell growth in a cell viability assay.
# [18] = system: HOP-92; format: functional, cell-based, Homo sapiens; settings: Homo sapiens, HOP-92;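 further: cell viability readout, with IC50 reflecting inhibition of HOP-92 cell growth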
# Description: SANGER: Inhibition of human HOP-92 cell growth in a cell viability assay.
# [19] = system: HT; format: functional, cell-based; settings: Homo sapiens
# Description: SANGER: Inhibition of human HT cell growth in a cell viability assay.
# [20] = system: HT-3; format: functional, cell-based, Homo sapiens; settings: Homo sapiens, HT-3;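 further: growth inhibition measured with a cell viability readout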
# Description: SANGER: Inhibition of human HT-3 cell growth in a cell viability assay.
# [21] = system: HuTu80; format: functional, cell-based, Homo sapiens, HUTU-80; settings: Homo sapiens, HuTu80;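 further: growth inhibition of HuTu80 human cells, determined with a cell viability readout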
# Description: SANGER: Inhibition of human HUTU-80 cell growth in a cell viability assay.
# [22] = system: KARPAS-299; format: functional, cell-based; settings: Homo sapiens
# Description: SANGER: Inhibition of human KARPAS-299 cell growth in a cell viability assay.
# [23] = system: KINGS-1; format: functional, cell-based, Homo sapiens; settings: Homo sapiens, KINGS-1;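 further: cell viability assay measuring suppression of KINGS-1 cell growth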
# Description: SANGER: Inhibition of human KINGS-1 cell growth in a cell viability assay.
# [24] = system: KNS-42; format: functional, cell-based, Homo sapiens; settings: Homo sapiens, KNS-42;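 further: growth inhibition of KNS-42 cells, read out with a cell viability assay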
# Description: SANGER: Inhibition of human KNS-42 cell growth in a cell viability assay.
# [25] = system: KP-N-YS; format: functional, cell-based; settings: Homo sapiens;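 further: cell viability assay measuring inhibition of cell line growth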
# Description: SANGER: Inhibition of human KP-N-YS cell growth in a cell viability assay.
# [26] = system: KURAMOCHI; format: functional, cell-based; settings: Homo sapiens;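 further: growth inhibition of KURAMOCHI cells, read out with a cell viability assay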
# Description: SANGER: Inhibition of human KURAMOCHI cell growth in a cell viability assay.
# [27] = system: KYSE-410; format: functional, cell-based, Homo sapiens; settings: Homo sapiens, KYSE-410;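 further: growth inhibition of KYSE-410 cells, measured through a cell viability readout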
# Description: SANGER: Inhibition of human KYSE-410 cell growth in a cell viability assay.
# [28] = system: LB2518-MEL; format: functional, cell-based, Homo sapiens; settings: Homo sapiens, LB2518-MEL;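 further: growth inhibition of human LB2518-MEL cells, measured with a cell viability assay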
# Description: SANGER: Inhibition of human LB2518-MEL cell growth in a cell viability assay.
# [29] = system: LU-134-A; format: functional, cell-based; settings: Homo sapiens
# Description: SANGER: Inhibition of human LU-134-A cell growth in a cell viability assay.
# [30] = system: LU-139; format: functional, cell-based; settings: Homo sapiens
# Description: SANGER: Inhibition of human LU-139 cell growth in a cell viability assay.
# [31] = system: MN-60; format: functional, cell-based; settings: Homo sapiens;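 further: growth inhibition of the MN-60 cell line, determined with a cell viability assay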
# Description: SANGER: Inhibition of human MN-60 cell growth in a cell viability assay.
# [32] = system: NCI-H1651; format: functional, cell-based, Homo sapiens; settings: Homo sapiens, NCI-H1651;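 further: Read-out is a cell viability assay, with IC50 expressing inhibition of NCI-H1651 cell growth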
# Description: SANGER: Inhibition of human NCI-H1651 cell growth in a cell viability assay.
# [33] = system: NCI-H1770; format: functional, cell-based; settings: Homo sapiens;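 further: growth inhibition of NCI-H1770 cells determined with a viability readout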
# Description: SANGER: Inhibition of human NCI-H1770 cell growth in a cell viability assay.
# [34] = system: NCI-H209; format: functional, cell-based; settings: Homo sapiens;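 further: growth inhibition of human NCI-H209 cells, measured by a cell viability assay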
# Description: SANGER: Inhibition of human NCI-H209 cell growth in a cell viability assay.
# [35] = system: NCI-H2126; format: functional, cell-based, Homo sapiens; settings: Homo sapiens, NCI-H2126;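 further: growth inhibition of the cancer cell line, determined with a cell viability readout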
# Description: SANGER: Inhibition of human NCI-H2126 cell growth in a cell viability assay.
# [36] = system: NCI-H446; format: functional, cell-based; settings: Homo sapiens;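 further: growth inhibition of NCI-H446 cells determined by a cell viability assay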
# Description: SANGER: Inhibition of human NCI-H446 cell growth in a cell viability assay.
# [37] = system: NCI-H520; format: functional, cell-based, Homo sapiens; settings: Homo sapiens, NCI-H520;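 further: growth inhibition of NCI-H520 cells, measured by a cell viability assay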
# Description: SANGER: Inhibition of human NCI-H520 cell growth in a cell viability assay.
# [38] = system: NCI-H661; format: functional, cell-based, Homo sapiens; settings: Homo sapiens, NCI-H661;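 further: cell viability assay read-out, IC50 being the concentration that inhibits growth of the cells by half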
# Description: SANGER: Inhibition of human NCI-H661 cell growth in a cell viability assay.
# [39] = system: NCI-H810; format: functional, cell-based, Homo sapiens; settings: Homo sapiens, NCI-H810;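 further: IC50 reflects inhibition of cancer cell line growth, read out with a cell viability assay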
# Description: SANGER: Inhibition of human NCI-H810 cell growth in a cell viability assay.
# [40] = system: NCI-N87; format: functional, cell-based, Homo sapiens; settings: Homo sapiens, NCI-N87;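 further: growth inhibition of human NCI-N87 cells, read out with a cell viability assay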
# Description: SANGER: Inhibition of human NCI-N87 cell growth in a cell viability assay.
# [41] = system: SNU1; format: functional, cell-based; settings: Homo sapiens;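 further: growth inhibition of human NCI-SNU-1 cells, measured with a cell viability assay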
# Description: SANGER: Inhibition of human NCI-SNU-1 cell growth in a cell viability assay.
# [42] = system: OCUB-M; format: functional, cell-based, Homo sapiens; settings: Homo sapiens, OCUB-M;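 further: growth inhibition of the cancer cell line, read out through a cell viability assay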
# Description: SANGER: Inhibition of human OCUB-M cell growth in a cell viability assay.
# [43] = system: SK-HEP1; format: functional, cell-based, Homo sapiens, SK-HEP-1; settings: Homo sapiens, SK-HEP1;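 further: cell viability readout used to quantify reduction in proliferation of human SK-HEP-1 cells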
# Description: SANGER: Inhibition of human SK-HEP-1 cell growth in a cell viability assay.
# [44] = system: SK-N-FI; format: functional, cell-based, Homo sapiens; settings: Homo sapiens, SK-N-FI;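 further: cell viability assay measuring growth inhibition of human SK-N-FI cells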
# Description: SANGER: Inhibition of human SK-N-FI cell growth in a cell viability assay.
# [45] = system: SK-NEP-1; format: functional, cell-based; settings: Homo sapiens;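 further: growth inhibition of human SK-NEP-1 cells, read out by a cell viability assay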
# Description: SANGER: Inhibition of human SK-NEP-1 cell growth in a cell viability assay.
# [46] = system: SW626; format: functional, cell-based, Homo sapiens; settings: Homo sapiens, SW626;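 further: growth inhibition of SW626 cells, measured with a cell viability assay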
# Description: SANGER: Inhibition of human SW626 cell growth in a cell viability assay.
# [47] = system: A253 cell line; format: functional, cell-based, Homo sapiens; settings: Homo sapiens, A253;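 further: growth inhibition of A253 cells, read out with a cell viability assay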
# Description: SANGER: Inhibition of human A253 cell growth in a cell viability assay.
# [48] = system: CAL-120; format: functional, cell-based, Homo sapiens; settings: Homo sapiens, CAL-120;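 further: cell growth inhibition, read out as cell viability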
# Description: SANGER: Inhibition of human CAL-120 cell growth in a cell viability assay.
# [49] = system: CAL-51; format: functional, cell-based, Homo sapiens; settings: Homo sapiens, CAL-51;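 further: human CAL-51 cell line, growth inhibition read out via a cell viability assay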
# Description: SANGER: Inhibition of human CAL-51 cell growth in a cell viability assay.
# [50] = system: CAL-85-1; format: functional, cell-based; settings: Homo sapiens;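 further: growth inhibition of human CAL-85-1 cells, read out with a cell viability assay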
# Description: SANGER: Inhibition of human CAL-85-1 cell growth in a cell viability assay.
# [51] = system: TE-10; format: functional, cell-based, Homo sapiens; settings: Homo sapiens, TE-10;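 further: growth inhibition of TE-10 cells, measured by a cell viability assay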
# Description: SANGER: Inhibition of human TE-10 cell growth in a cell viability assay.
# [52] = system: UACC-893; format: functional, cell-based, Homo sapiens; settings: Homo sapiens, UACC-893
# Description: SANGER: Inhibition of human UACC-893 cell growth in a cell viability assay.
compound,measurement,setting,value
Cc1cnc(-c2cnc(NCCNc3ccc(C#N)cn3)nc2-c2ccc(Cl)cc2Cl)[nH]1 [LADUVIGLUSIB],IC50,[1],> 2560 nM
same,IC50,[2],> 2560 nM
same,IC50,[3],> 2560 nM
same,IC50,[4],> 2560 nM
same,IC50,[5],> 2560 nM
same,IC50,[6],> 2560 nM
same,IC50,[7],> 2560 nM
same,IC50,[8],> 2560 nM
same,IC50,[9],> 2560 nM
same,IC50,[10],> 2560 nM
same,IC50,[11],> 2560 nM
same,IC50,[12],> 2560 nM
same,IC50,[13],> 2560 nM
same,IC50,[14],> 2560 nM
same,IC50,[15],> 2560 nM
same,IC50,[16],> 2560 nM
same,IC50,[17],> 2560 nM
same,IC50,[18],> 2560 nM
same,IC50,[19],> 2560 nM
same,IC50,[20],> 2560 nM
same,IC50,[21],> 2560 nM
same,IC50,[22],> 2560 nM
same,IC50,[23],> 2560 nM
same,IC50,[24],> 2560 nM
same,IC50,[25],> 2560 nM
same,IC50,[26],> 2560 nM
same,IC50,[27],> 2560 nM
same,IC50,[28],> 2560 nM
same,IC50,[29],> 2560 nM
same,IC50,[30],> 2560 nM
same,IC50,[31],> 2560 nM
same,IC50,[32],> 2560 nM
same,IC50,[33],> 2560 nM
same,IC50,[34],> 2560 nM
same,IC50,[35],> 2560 nM
same,IC50,[36],> 2560 nM
same,IC50,[37],> 2560 nM
same,IC50,[38],> 2560 nM
same,IC50,[39],> 2560 nM
same,IC50,[40],> 2560 nM
same,IC50,[41],> 2560 nM
same,IC50,[42],> 2560 nM
same,IC50,[43],> 2560 nM
same,IC50,[44],> 2560 nM
same,IC50,[45],> 2560 nM
same,IC50,[46],> 2560 nM
same,IC50,[47],> 2560 nM
same,IC50,[48],> 2560 nM
same,IC50,[49],> 2560 nM
same,IC50,[50],> 2560 nM
same,IC50,[51],> 2560 nM
same,IC50,[52],> 2560 nM
COc1cc([C@@H]2c3cc4c(cc3[C@@H](O[C@@H]3O[C@@H]5CO[C@@H](C)O[C@H]5[C@H](O)[C@H]3O)[C@H]3COC(=O)[C@H]23)OCO4)cc(OC)c1O [ETOPOSIDE],IC50,[1],> 16000 nM
same,IC50,[2],> 16000 nM
same,IC50,[3],2190 nM
same,IC50,[4],> 16000 nM
same,IC50,[5],> 16000 nM
same,IC50,[6],3270 nM
same,IC50,[7],254 nM
same,IC50,[8],> 16000 nM
same,IC50,[9],4770 nM
same,IC50,[10],302 nM
same,IC50,[11],713 nM
same,IC50,[12],9830 nM
same,IC50,[13],> 16000 nM
same,IC50,[14],3800 nM
same,IC50,[15],540 nM
same,IC50,[16],15800 nM
same,IC50,[17],569 nM
same,IC50,[18],5020 nM
same,IC50,[19],15300 nM
same,IC50,[20],1130 nM
same,IC50,[21],217 nM
same,IC50,[22],> 16000 nM
same,IC50,[23],> 16000 nM
same,IC50,[24],13700 nM
same,IC50,[25],4240 nM
same,IC50,[26],699 nM
same,IC50,[27],12800 nM
same,IC50,[28],> 16000 nM
same,IC50,[29],299 nM
same,IC50,[30],4010 nM
same,IC50,[31],> 16000 nM
same,IC50,[32],> 16000 nM
same,IC50,[33],3870 nM
same,IC50,[34],1210 nM
same,IC50,[35],10400 nM
same,IC50,[36],> 16000 nM
same,IC50,[37],8040 nM
same,IC50,[38],4340 nM
same,IC50,[39],1580 nM
same,IC50,[40],15800 nM
same,IC50,[41],1750 nM
same,IC50,[42],44.6 nM
same,IC50,[43],267 nM
same,IC50,[44],> 16000 nM
same,IC50,[45],1900 nM
same,IC50,[46],8900 nM
same,IC50,[47],18.4 nM
same,IC50,[48],15600 nM
same,IC50,[49],1080 nM
same,IC50,[50],2160 nM
same,IC50,[51],2380 nM
same,IC50,[52],> 16000 nM
C[C@]1(O)C[C@@H](c2nc(-c3ccc4ccc(-c5ccccc5)nc4c3)c3c(N)nccn32)C1 [LINSITINIB],IC50,[1],> 2560 nM
same,IC50,[2],> 2560 nM
same,IC50,[3],> 2560 nM
same,IC50,[4],> 2560 nM
same,IC50,[5],> 2560 nM
same,IC50,[6],> 2560 nM
same,IC50,[7],107 nM
same,IC50,[8],> 2560 nM
same,IC50,[9],284 nM
same,IC50,[10],> 2560 nM
same,IC50,[11],> 2560 nM
same,IC50,[12],> 2560 nM
same,IC50,[13],> 2560 nM
same,IC50,[14],> 2560 nM
same,IC50,[15],> 2560 nM
same,IC50,[16],> 2560 nM
same,IC50,[17],88.5 nM
same,IC50,[18],> 2560 nM
same,IC50,[19],> 2560 nM
same,IC50,[20],> 2560 nM
same,IC50,[21],> 2560 nM
same,IC50,[22],> 2560 nM
same,IC50,[23],> 2560 nM
same,IC50,[24],> 2560 nM
same,IC50,[25],> 2560 nM
same,IC50,[26],> 2560 nM
same,IC50,[27],> 2560 nM
same,IC50,[28],> 2560 nM
same,IC50,[29],2280 nM
same,IC50,[30],> 2560 nM
same,IC50,[31],> 2560 nM
same,IC50,[32],> 2560 nM
same,IC50,[33],1510 nM
same,IC50,[34],> 2560 nM
same,IC50,[35],> 2560 nM
same,IC50,[36],> 2560 nM
same,IC50,[37],> 2560 nM
same,IC50,[38],> 2560 nM
same,IC50,[39],> 2560 nM
same,IC50,[40],> 2560 nM
same,IC50,[41],> 2560 nM
same,IC50,[42],> 2560 nM
same,IC50,[43],> 2560 nM
same,IC50,[44],> 2560 nM
same,IC50,[45],602 nM
same,IC50,[46],> 2560 nM
same,IC50,[47],> 2560 nM
same,IC50,[48],> 2560 nM
same,IC50,[49],> 2560 nM
same,IC50,[50],1230 nM
same,IC50,[51],> 2560 nM
same,IC50,[52],> 2560 nM
